Source: ChEMBL document CHEMBL1126963, “Acid unit modifications of 1,2,4,5-substituted hydroxyacetophenones and the effect on in vitro and in vivo LTB4 receptor antagonism” (Bioorg Med Chem Lett, 1993)

What was measured:
Assay type in all cases: functional
[1] = organism: Homo sapiens; test: Antagonism of LTB4 receptor induced CD11b/CD18 adhesion protein up-regulation in human neutrophil
[2] = system: Cavia porcellus; test: Potency was evaluated in vivo in a guinea pig model of LTB4-induced airway obstruction upon intravenous administration
[3] = system: Cavia porcellus; test: Potency was evaluated in vivo in a guinea pig model of LTB4-induced airway obstruction upon oral administration

Compound	IC50 [1] [nM]	ED50 [2] [mg/kg]	ED50 [3] [mg/kg]
CCCc1c(OCCCOc2cc(O)c(C(C)=O)cc2CC)cccc1OC(CC)C(=O)O (stereo not drawn)	1940	–	–
CCCc1c(OCCCOc2cc(O)c(C(C)=O)cc2CC)cccc1OC(C)C(=O)O (stereo not drawn)	3270	–	–
CCCc1c(OCCCOc2cc(O)c(C(C)=O)cc2CC)ccc2c1OC(C(=O)[O-])CC2.[Na+] (stereo not drawn)	1600	0.23	0.5
CCCc1c(OCCCOc2cc(O)c(C(C)=O)cc2CC)cccc1OCC(=O)O	4390	–	–
CCc1cc(C(C)=O)c(O)cc1OCCCCCC(C)(C)c1nn[nH]n1 [LY-255283]	–	2.8	11
